Test results taken from patent publication US11957671B2, “Benzodioxane modulators of leukotriene A4 hydrolase (LTA4H) for prevention and treatment of aging-associated diseases” (Alkahest, Inc., priority 2021, dated 2024).

Tests used:
[1] = system: Transgenic Notch3R169C mice; experiment: CADASIL Mouse Model, Example 10; format: in vivo; conditions: 1 mg/kg PO bid for four months
Method: Transgenic Notch3^R169C mice are obtained along with transgenic Notch3^WT and/or wild type mice as described previously (Ghosh M, et al., Ann Neurol., 78(6):887-900 (2015); Rajani R M, et al., Acta Neuropathologica Comm., 7(187) (2019); and Joutel A, et al., J. Clin. Invest., 120(2):433-45 (2010), herein incorporated by reference in their entirety). Twenty Notch3R169c mice and 10 littermate control 5-month-old wild type mice are dosed with Vehicle or Compound 1 at 1 mg/kg PO bid for four months. Mice are anesthetized and blood and tissues are collected for further analysis.
Transgenic Notch3^R169C mice treated with Vehicle or Compound as described previously in section A (Experimental Procedures supra) have blood collected via cardiac puncture in syringes pre-filled with Heparin. Brains are collected following saline and Heparin infusion and separated by mid-sagittal slice. One half of the brain is drop fixed in 4% PFA and 24 hours later, the brain is changed into a solution of 15% sucrose. A secondary change to 30% sucrose is performed 48 hours after initial fixation in PFA.
Brains are then sectioned to 50 micrometers in thickness using a vibratome and placed on a slide for immunostaining and stained with PDGFRβ and LECTIN antibodies as described previously (Ghosh supra) to show pericyte coverage. The number of PDGFRβ positive pericytes per square millimeter of selected field area in the cortex is analyzed by randomly selecting four fields in nonadjacent sections at approximately 100 μm intervals.
Albumin and fibrinogen presence is measured as a positive signal in the brain parenchyma. The signals are quantified as described previously (Ghosh supra). Transgenic mice treated with Vehicle has increased albumin and fibrinogen leakiness into the brain parenchyma compared to Vehicle treated wild-type controls.
GFAP and AQP4 markers for astrocytes are measured to determine the presence of astrocyte end-feet. Transgenic mice treated with Vehicle is reduced GFAP and AQP4 compared with Vehicle treated wild-type controls. […] AQP4 and GFAP are markers for astrocyte, which make up an important part of the neurovascular unit and are lost in CADASIL mouse models and human patients.

aged C57BL6 mice = experiment: Open Field; format: in vivo, mouse
Method: The open field test was used to evaluate general locomotor activity and exploratory behavior in a novel environment. It consisted of a square arena (16 in ×16 in). Mice were brought to the experimental room for at least 30 min of acclimation to the experimental room conditions (dim lighting) prior to testing. Mice were placed in the center of the arena, recorded, and tracked within a predefined peripheral and center space using the photobeam activity system automated software (ANY-maze) for 15 min. Total distance traveled, average velocity, and time spent in the peripheral and center zones were analyzed.
Three independent cohorts of aged wild type (WT; C57BL/6) mice between twenty to twenty-two months of age (20-22 mo) were homogenized into two (2) groups by body weight, total distance travelled in the open field test, and average velocity in the open field test. Group 1 was administered vehicle control PO daily. Group 2 was administered 10 mg/kg of the LTA4H inhibitor Compound 1 PO daily. Both groups were dosed for either 10 days or 4 weeks daily. Behavioral assays were run during the last week of dosing and animals were sacrificed at the end of the study for histological and molecular assays.

LTA4H = LTA4H (Mus musculus (Mouse), UniProt P24527); experiment: LTB4 Target Engagement Assay (in vivo dosing, calcimycin stimulated blood); conditions: for LTB4 levels in calcimycin stimulated plasma: aged mice
Sequence of LTA4H (P24527 whole entry): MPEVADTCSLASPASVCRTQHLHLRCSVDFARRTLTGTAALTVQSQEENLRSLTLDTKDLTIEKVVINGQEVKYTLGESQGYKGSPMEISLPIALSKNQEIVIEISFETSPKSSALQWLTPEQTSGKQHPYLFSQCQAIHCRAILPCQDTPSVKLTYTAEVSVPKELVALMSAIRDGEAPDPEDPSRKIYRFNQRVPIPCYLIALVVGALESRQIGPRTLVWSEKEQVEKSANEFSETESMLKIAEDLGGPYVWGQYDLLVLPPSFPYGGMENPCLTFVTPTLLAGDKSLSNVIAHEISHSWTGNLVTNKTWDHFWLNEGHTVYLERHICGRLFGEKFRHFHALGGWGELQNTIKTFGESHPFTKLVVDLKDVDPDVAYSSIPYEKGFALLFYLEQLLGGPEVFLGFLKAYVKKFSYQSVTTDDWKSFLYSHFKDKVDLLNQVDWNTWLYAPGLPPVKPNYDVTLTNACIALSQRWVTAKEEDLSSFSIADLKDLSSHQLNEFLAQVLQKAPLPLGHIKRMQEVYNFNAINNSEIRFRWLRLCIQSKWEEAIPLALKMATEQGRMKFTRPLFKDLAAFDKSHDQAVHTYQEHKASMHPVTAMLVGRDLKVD
Method: Whole blood was collected by cardiac puncture using heparin as an anti-coagulant. 160 μL of whole blood was collected in duplicate for each mouse and incubated for 15 minutes in 37° C./5% CO2. During this time a 0.1 mM calcimycin stock was made by diluting 10 mM calcimycin (Sigma C7522) formulated in DMSO into PBS. Control solution was made by diluting the same volume of DMSO in PBS. Both solutions were sonicated for 10 minutes in a 37° C. water bath. 40 μL of 0.1 mM calcimycin (stimulated) or control solution (unstimulated) was added to each well of whole blood and incubated at 37° C./5% CO2 for 30 minutes. Whole blood was spun for 10 minutes at 1000×g to separate out plasma. LTB4 levels were detected by running an ELISA on the collected stimulated and unstimulated plasma diluted 1:10 (Enzo Life Sciences, ADI-901-068). The ELISA plates were read on a BMG LABTECH CLARIOstar plate reader at 405 nm.
FIGS. 60-62 report the results of in vivo target engagement assays with Compound 1 in mouse plasma. Whole blood from mice dosed with Compound 1 for 10-day FIG. 60 or 4 weeks FIG. 61 was incubated with a calcium ionophore to stimulate LTB4 release. Plasma was generated and LTB4 levels were measured using ELISA. LTB4 is the product of LTA4H hydrolysis so this assay reports on LTA4H enzymatic activity.

[2] = system: Male C57BL/6 mice aged 20-21 months; experiment: Cortical brain lysate Cardiovascular Disease Panel (Luminex); format: in vivo, mouse; conditions: 10 mg/kg po one month
Method: Male C57BL/6 mice aged 20-21 months were treated with Vehicle or 10 mg/kg Compound 1 LTA4H inhibitor po for one month. Mice were anesthetized and perfused with saline. Brain tissue was collected, and sub dissected into cortex and hippocampus. Cortex samples were lysed in RIPA buffer and the soluble supernatant fraction was sent to Eve Technologies for analysis on the Cardiovascular Disease Panel using Luminex technology.

[3] = system: synthesis of LTB4 in human whole blood; experiment: human whole blood (HWB) assay, LTB4 production inhibition; format: cell-based; conditions: calcimycin 20 μM
Method: The compounds of the invention are additionally tested in a human whole blood (HWB) assay to determine their ability to inhibit the synthesis of LTB4 in a cellular system. Compounds are combined with heparinized human whole blood and incubated for 15 minutes at 37° C. Calcimycin (20 μM final, prepared in phosphate-buffered saline, pH 7.4) is then added and the mixture is incubated for another 30 minutes at 37° C. The samples are centrifuged for 5 min at low speed (1500×g) and the plasma layer is removed. Plasma LTB4 concentrations are then measured using an antibody-based homogenous time-resolved fluorescence method (CisBio, Bedford, Mass.). In general, the preferred potency range (IC50) of compounds in the HWB assay is between 10 nM to 10 μM, the more preferred potency range is 10 nM to 1 μM, and the most preferred potency range is 10 nM to 100 nM.

- total distance traveled in open field (aged C57BL6 mice; 4 weeks of dosing): no change in total distance traveled
- velocity in open field (aged C57BL6 mice; 4 weeks of dosing): no change in velocity
- total distance traveled in open field (aged C57BL6 mice; 10 days of dosing): no change in total distance traveled
- velocity in open field (aged C57BL6 mice; 10 days of dosing): no change in velocity
- LTB4 levels in calcimycin stimulated plasma (LTA4H; 4 weeks of dosing): inhibition of LTA4H
- LTB4 levels in calcimycin stimulated plasma (LTA4H; 10 days of dosing): inhibition of LTA4H
- IC50 [3]: 179 nM
SMILES: O=C(O)C1CCN(Cc2ccc([C@H]3COc4ccccc4O3)cc2)CC1 [Example 1, 1-{4-[(2S)-2,3-dihydro-1,4-benzodioxin-2-yl]benzyl}piperidine-4-carboxylic acid]
- GFAP and AQP4 signal at vessels in the cortex [1]: increased positive signal at Lectin-positive vessels
- additional blood-brain barrier markers in cortices [1]: significant levels of improvement
- albumin and fibrinogen in brain parenchyma [1]: reduced albumin and fibrinogen
- plasma levels of LTB4 [1]: reduction in plasma levels of LTB4
- pericyte coverage and number in cortex ([1]; versus vehicle-treated transgenic mice): increase in pericyte coverage and number
- time spent in periphery (P) or center (C) (aged C57BL6 mice; 4 weeks of dosing): no difference between time spent in the periphery (P) or center (C)
- time spent in periphery (P) or center (C) (aged C57BL6 mice; 10 days of dosing): no difference between time spent in the periphery (P) or center (C)
- LTB4 inhibition, compound made for 3 independent studies (LTA4H; young mice, 2 hours after a single dose): no difference in the amount of inhibition across the 3 independent studies
- cortical MMP9 protein [2]: trending reduction in cortical MMP9 protein
- cortical Pecam-1 protein [2]: trending reduction in cortical Pecam-1 protein
